According to patent US20240174662A1, “SMALL MOLECULE INHIBITORS OF SALT INDUCIBLE KINASES” (Janssen Biotech, Inc., priority 2021, published 2024):

These compounds were tested against SIK2 (Homo sapiens (Human), UniProt Q9H0K1) (assay: SIK2 Enzymatic Assay Version 2 (High ATP)). Details: 3 mM ATP and 200 μM HDAC5tide final, ADP-Glo Max luminescence.
Assay type: biochemical
How it was run: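 Luminescent ADP-Glo Max read-out: depletion reagent 2 h, then detection reagent 1 h. Before the reaction, compounds were incubated 30 min with enzyme added at 6 nM (twice final concentration), with all steps at room temperature.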

SIK2, sequence (Q9H0K1 whole entry, species assumed): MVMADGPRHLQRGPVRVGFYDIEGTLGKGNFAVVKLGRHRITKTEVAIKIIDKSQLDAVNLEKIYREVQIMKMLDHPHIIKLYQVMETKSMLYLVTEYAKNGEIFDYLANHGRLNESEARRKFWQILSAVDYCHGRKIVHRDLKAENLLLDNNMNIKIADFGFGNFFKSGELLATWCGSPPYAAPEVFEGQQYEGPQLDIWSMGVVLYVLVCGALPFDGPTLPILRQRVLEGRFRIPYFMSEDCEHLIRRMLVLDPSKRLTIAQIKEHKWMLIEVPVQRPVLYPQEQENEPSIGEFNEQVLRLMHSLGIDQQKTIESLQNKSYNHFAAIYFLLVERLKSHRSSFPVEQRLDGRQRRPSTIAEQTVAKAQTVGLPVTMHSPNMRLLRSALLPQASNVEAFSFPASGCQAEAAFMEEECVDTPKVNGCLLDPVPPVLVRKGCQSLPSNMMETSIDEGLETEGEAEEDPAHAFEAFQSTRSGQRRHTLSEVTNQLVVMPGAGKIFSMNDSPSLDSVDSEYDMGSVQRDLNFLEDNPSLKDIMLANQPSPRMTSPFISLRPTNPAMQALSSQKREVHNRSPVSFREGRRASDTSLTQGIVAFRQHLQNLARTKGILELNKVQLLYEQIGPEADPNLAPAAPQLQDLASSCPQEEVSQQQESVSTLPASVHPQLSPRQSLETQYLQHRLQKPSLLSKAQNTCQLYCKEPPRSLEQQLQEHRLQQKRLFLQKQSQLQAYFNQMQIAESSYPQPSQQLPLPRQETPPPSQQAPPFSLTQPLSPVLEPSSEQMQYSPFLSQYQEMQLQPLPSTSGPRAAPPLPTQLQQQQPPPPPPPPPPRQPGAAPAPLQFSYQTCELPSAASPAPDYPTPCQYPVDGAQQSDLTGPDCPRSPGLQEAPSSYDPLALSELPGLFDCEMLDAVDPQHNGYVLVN

IC50 [µM]	Compound
0.0736	Cn1ncc(OC[C@@H]2CNC[C@H]2O)c1-c1ccn2nc(NC(=O)C3CC3)cc2c1 [Example 416, N-[5-[4-[[(3S,4S)-4-hydroxypyrrolidin-3-yl]methoxy]-2-methyl-pyrazol-3-yl]pyrazolo[1,5-a]pyridin-2-yl]cyclopropanecarboxamide]
0.13	CN1C[C@@H](COc2cnn(C)c2-c2ccn3nc(NC(=O)C4CC4)cc3c2)[C@H](O)C1 [Example 417, N-[5-[4-[[(3S,4S)-4-hydroxy-1-methyl-pyrrolidin-3-yl]methoxy]-2-methyl-pyrazol-3-yl]pyrazolo[1,5-a]pyridin-2-yl]cyclopropanecarboxamide]
0.136	CN1CCC[C@H]1COc1cnn(C)c1-c1ccn2nc(NC(=O)C3CC3)cc2c1 [Example 419, N-[5-[2-methyl-4-[[(2S)-1-methylpyrrolidin-2-yl]methoxy]pyrazol-3-yl]pyrazolo[1,5-a]pyridin-2-yl]cyclopropanecarboxamide]
0.171	CCN1CCC[C@H]1COc1cnn(C)c1-c1ccn2nc(NC(=O)C3CC3)cc2c1 [Example 420, N-[5-[4-[[(2S)-1-ethylpyrrolidin-2-yl]methoxy]-2-methyl-pyrazol-3-yl]pyrazolo[1,5-a]pyridin-2-yl]cyclopropanecarboxamide]
0.0969	CO[C@@H]1CNC[C@H]1COc1cnn(C)c1-c1ccn2nc(NC(=O)C3CC3)cc2c1 [Example 422, N-[5-[4-[[(3S,4S)-4-methoxypyrrolidin-3-yl]methoxy]-2-methyl-pyrazol-3-yl]pyrazolo[1,5-a]pyridin-2-yl]cyclopropanecarboxamide]
0.151	CO[C@@H]1CN(C)C[C@H]1COc1cnn(C)c1-c1ccn2nc(NC(=O)C3CC3)cc2c1 [Example 423, N-[5-[4-[[(3S,4S)-4-methoxy-1-methyl-pyrrolidin-3-yl]methoxy]-2-methyl-pyrazol-3-yl]pyrazolo[1,5-a]pyridin-2-yl]cyclopropanecarboxamide]
0.0961	CN1C[C@H](COc2cnn(C)c2-c2ccn3nc(NC(=O)C4CC4)cc3c2)[C@@H](O)C1 [Example 424, N-[5-[4-[[(3R,4R)-4-hydroxy-1-methyl-pyrrolidin-3-yl]methoxy]-2-methyl-pyrazol-3-yl]pyrazolo[1,5-a]pyridin-2-yl]cyclopropanecarboxamide]
0.155	Cn1ncc(OC[C@H]2CCN2CC#N)c1-c1ccn2nc(NC(=O)C3CC3)cc2c1 [Example 425, N-[5-[4-[[(2R)-1-(cyanomethyl)azetidin-2-yl]methoxy]-2-methyl-pyrazol-3-yl]pyrazolo[1,5-a]pyridin-2-yl]cyclopropanecarboxamide]
0.0735	CCN1CCC[C@@H]1COc1cnn(C)c1-c1ccn2nc(NC(=O)C3CC3)cc2c1 [Example 427, N-[5-[4-[[(2R)-1-ethylpyrrolidin-2-yl]methoxy]-2-methyl-pyrazol-3-yl]pyrazolo[1,5-a]pyridin-2-yl]cyclopropanecarboxamide]
0.183	COCCN1CCC[C@@H]1COc1cnn(C)c1-c1ccn2nc(NC(=O)C3CC3)cc2c1 [Example 428, N-[5-[4-[[(2R)-1-(2-methoxyethyl)pyrrolidin-2-yl]methoxy]-2-methyl-pyrazol-3-yl]pyrazolo[1,5-a]pyridin-2-yl]cyclopropanecarboxamide]
0.0999	Cn1ncc(OC[C@H]2CCN2Cc2ccccc2)c1-c1ccn2nc(NC(=O)C3CC3)cc2c1 [Example 429, N-[5-[4-[[(2R)-1-benzylazetidin-2-yl]methoxy]-2-methyl-pyrazol-3-yl]pyrazolo[1,5-a]pyridin-2-yl]cyclopropanecarboxamide]
0.097	Cn1ccc(CN2CC[C@@H]2COc2cnn(C)c2-c2ccn3nc(NC(=O)C4CC4)cc3c2)n1 [Example 430, N-[5-[2-methyl-4-[[(2R)-1-[(1-methylpyrazol-3-yl)methyl]azetidin-2-yl]methoxy]pyrazol-3-yl]pyrazolo[1,5-a]pyridin-2-yl]cyclopropanecarboxamide]
0.181	Cn1ncc(OC[C@H]2CCN2CCOC(F)(F)F)c1-c1ccn2nc(NC(=O)C3CC3)cc2c1 [Example 431, N-[5-[2-methyl-4-[[(2R)-1-[2-(trifluoromethoxy)ethyl]azetidin-2-yl]methoxy]pyrazol-3-yl]pyrazolo[1,5-a]pyridin-2-yl]cyclopropanecarboxamide]
0.0768	CN1C[C@H]2C[C@H]2[C@@H]1COc1cnn(C)c1-c1ccn2nc(NC(=O)C3CC3)cc2c1 [Example 432, N-[5-[2-methyl-4-[[(1S,4R,5R)-3-methyl-3-azabicyclo[3.1.0]hexan-4-yl]methoxy]pyrazol-3-yl]pyrazolo[1,5-a]pyridin-2-yl]cyclopropanecarboxamide]
0.122	Cn1ncc(OC[C@H]2CCN2CC2COC2)c1-c1ccn2nc(NC(=O)C3CC3)cc2c1 [Example 433, N-[5-[2-methyl-4-[[(2R)-1-(oxetan-3-ylmethyl)azetidin-2-yl]methoxy]pyrazol-3-yl]pyrazolo[1,5-a]pyridin-2-yl]cyclopropanecarboxamide]
0.101	CNC1(COc2cnn(C)c2-c2ccn3nc(NC(=O)C4CC4)cc3c2)CC1 [Example 434, N-[5-[2-methyl-4-[[1-(methylamino)cyclopropyl]methoxy]pyrazol-3-yl]pyrazolo[1,5-a]pyridin-2-yl]cyclopropanecarboxamide]
0.0797	COC(C)(C)CN1CC[C@@H]1COc1cnn(C)c1-c1ccn2nc(NC(=O)C3CC3)cc2c1 [Example 435, N-[5-[4-[[(2R)-1-(2-methoxy-2-methyl-propyl)azetidin-2-yl]methoxy]-2-methyl-pyrazol-3-yl]pyrazolo[1,5-a]pyridin-2-yl]cyclopropanecarboxamide]
0.079	Cn1ncc(OC[C@H]2CCN2c2ccccn2)c1-c1ccn2nc(NC(=O)C3CC3)cc2c1 [Example 436, N-[5-[2-methyl-4-[[(2R)-1-(2-pyridyl)azetidin-2-yl]methoxy]pyrazol-3-yl]pyrazolo[1,5-a]pyridin-2-yl]cyclopropanecarboxamide]
0.0856	C[C@H]1CN(C)[C@H]1COc1cnn(C)c1-c1ccn2nc(NC(=O)C3CC3)cc2c1 [Example 437, N-[5-[4-[[(2R,3S)-1,3-dimethylazetidin-2-yl]methoxy]-2-methyl-pyrazol-3-yl]pyrazolo[1,5-a]pyridin-2-yl]cyclopropanecarboxamide]
0.088	Cc1cc(Nc2cc3cc(-c4c(OC[C@H]5C[C@H](O)C5)cnn4C)ccn3n2)nc(C)n1 [Example 438, 3-[[5-[2-[(2,6-dimethylpyrimidin-4-yl)amino]pyrazolo[1,5-a]pyridin-5-yl]-1-methyl-pyrazol-4-yl]oxymethyl]cyclobutanol]
0.106	Cc1cc(Nc2cc3cc(-c4c(O[C@H]5CCN[C@@H]5C)cnn4C)ccn3n2)nc(C)n1 [Example 442, N-(2,6-dimethylpyrimidin-4-yl)-5-[2-methyl-4-[(2R,3S)-2-methylpyrrolidin-3-yl]oxy-pyrazol-3-yl]pyrazolo[1,5-a]pyridin-2-amine]
0.111	Cc1cc(Nc2cc3cc(-c4c(OC[C@H]5C[C@H](C)CN5)cnn4C)ccn3n2)nc(C)n1 [Example 446, N-(2,6-dimethylpyrimidin-4-yl)-5-[2-methyl-4-[[(2R,4S)-4-methylpyrrolidin-2-yl]methoxy]pyrazol-3-yl]pyrazolo[1,5-a]pyridin-2-amine]
0.0895	CN1CC[C@H](Oc2cnn(C)c2-c2ccn3nc(Nc4cccnn4)cc3c2)C1 [Example 449, 5-[2-methyl-4-[(3S)-1-methylpyrrolidin-3-yl]oxy-pyrazol-3-yl]-N-pyridazin-3-yl-pyrazolo[1,5-a]pyridin-2-amine]
0.0751	CN1CC[C@H](Oc2cnn(C)c2-c2ccn3nc(Nc4cnccn4)cc3c2)C1 [Example 450, 5-[2-methyl-4-[(3S)-1-methylpyrrolidin-3-yl]oxy-pyrazol-3-yl]-N-pyrazin-2-yl-pyrazolo[1,5-a]pyridin-2-amine]
0.107	Cc1ccc(Nc2cc3cc(-c4c(O[C@H]5CCN(C)C5)cnn4C)ccn3n2)cn1 [Example 451, 5-[2-methyl-4-[(3S)-1-methylpyrrolidin-3-yl]oxy-pyrazol-3-yl]-N-(6-methyl-3-pyridyl)pyrazolo[1,5-a]pyridin-2-amine]
0.135	CN1CC[C@H](Oc2cnn(C)c2-c2ccn3nc(Nc4ccccn4)cc3c2)C1 [Example 452, 5-[2-methyl-4-[(3S)-1-methylpyrrolidin-3-yl]oxy-pyrazol-3-yl]-N-(2-pyridyl)pyrazolo[1,5-a]pyridin-2-amine]
0.162	CN1CC[C@H](Oc2cnn(C)c2-c2ccn3nc(Nc4cnc(C(F)(F)F)cn4)cc3c2)C1 [Example 453, 5-[2-methyl-4-[(3S)-1-methylpyrrolidin-3-yl]oxy-pyrazol-3-yl]-N-[5-(trifluoromethyl)pyrazin-2-yl]pyrazolo[1,5-a]pyridin-2-amine]
0.0813	Cc1cnc(Nc2cc3cc(-c4c(O[C@H]5CCN(C)C5)cnn4C)ccn3n2)cn1 [Example 454, 5-[2-methyl-4-[(3S)-1-methylpyrrolidin-3-yl]oxy-pyrazol-3-yl]-N-(5-methylpyrazin-2-yl)pyrazolo[1,5-a]pyridin-2-amine]
0.137	CN1CC[C@H](Oc2cnn(C)c2-c2ccn3nc(Nc4ccncn4)cc3c2)C1 [Example 455, 5-[2-methyl-4-[(3S)-1-methylpyrrolidin-3-yl]oxy-pyrazol-3-yl]-N-pyrimidin-4-yl-pyrazolo[1,5-a]pyridin-2-amine]
0.102	Cc1nccc(Nc2cc3cc(-c4c(O[C@H]5CCN(C)C5)cnn4C)ccn3n2)n1 [Example 456, 5-[2-methyl-4-[(3S)-1-methylpyrrolidin-3-yl]oxy-pyrazol-3-yl]-N-(2-methylpyrimidin-4-yl)pyrazolo[1,5-a]pyridin-2-amine]

Compound	IC50 [µM]
Cn1ncc(OC[C@@H](N)C(C)(C)O)c1-c1ccn2nc(NC(=O)C3CC3)cc2c1 [Example 426, N-[5-[4-[(2R)-2-amino-3-hydroxy-3-methyl-butoxy]-2-methyl-pyrazol-3-yl]pyrazolo[1,5-a]pyridin-2-yl]cyclopropanecarboxamide]	0.0716
